From patent publication US6809096B1, “Phenanthroline-7-one derivatives and their therapeutic uses” (Laboratoire L. Lafon, priority 1999, dated 2004)

What was measured:
[1] = system: HS-MXT tumours; experiment: In vivo antitumour activity, hormone-sensitive mouse mammary adenocarcinoma MXT (HS-MXT), tumour growth; conditions: 5 mg/kg intraperitoneally; for Tumour area (expressed as %): decrease (−) or increase (+) in HS-MXT tumour area vs control on the 31st day after grafting, 9 administrations
Protocol: (§1) The tests were carried out on models of:
hormone-sensitive mouse mammary adenocarcinoma MXT (HS-MXT),
(§2) The model of mouse mammary adenocarcinoma MXT of Watson C. et al. (Cancer Res., 1977; […]: 3344-48), grafted onto B6D2F1/Jico mice aged from 4 to 6 weeks, is derived from the mammary gland milk ducts. Initially hormone-sensitive (HS-MXT model), the differentiated tumour develops in the direction of an undifferentiated hormone-insensitive tumour (HI-MXT model). […] This is the case, for example, with cyclophosphamide, etoposide or adriamycin.
(§3) When the MTD value of a product was determined, its in vivo antitumour activity was characterized at the MTD/2, MTD/4 and MTD/8 doses on the models of mammary adenocarcinoma of mouse origin HS-MXT and of mouse mammary carcinoma HI-MXT and on the model of subcutaneous lymphoma L 1210.
(§4) In all the examples presented below, whatever the model, the control condition is represented by a batch of 9 or 15 mice to which is administered, for 3 consecutive weeks and at the rate of 3 administrations (Monday, Wednesday and Friday) per week, a volume of 0.2 ml of physiological saline comprising the solvent used to dissolve the various compounds of formula (I) and (Ia) used.
(§5) i)—The tumour growth was evaluated by measuring twice weekly (Monday and Friday) the area of the grafted HS-MXT, HI-MXT or L 1210 tumours. This area is calculated by multiplying the value of the two greatest perpendicular axes of the tumour. The value of these axes is measured using a sliding caliper.
The influence of the two products CRL 8293 and CRL 8294 on the growth of HS-MXT tumours will be presented below by way of example. Each batch of mice grafted with the HS-MXT tumours relating to a given experimental condition comprises 9 animals.
(§6) The product CRL 8293 is administered intraperitoneally. The first injection of the product is carried out on the seventh day postgrafting (D7) at the rate of 3 injections per week (Monday, Wednesday and Friday) for 3 consecutive weeks and at a dose of 5 mg/kg.
The product CRL 8294 is administered alone by the intraperitoneal route. The first injection of the product is carried out on the seventh day postgrafting (D7) at the rate of 3 injections per week (Monday, Wednesday and Friday) for 3 consecutive weeks and at a dose of 5 mg/kg.
The decreases (−) or the increases (+) in the area of the HS-MXT tumours induced with treatments 10 and 20 with respect to the control condition on the 31st day after the tumour grafting, i.e. after the 9 administrations provided in the experimental protocol of the 2 products CRL 8293 and CRL 8294, are shown, as percentage, in the following Table IV. 100% of the control animals are still alive on the 31st day postgrafting.

[2] = system: HI-MXT tumours; experiment: In vivo antitumour activity, hormone-insensitive mouse mammary carcinoma MXT (HI-MXT), tumour growth; conditions: 5 mg/kg intraperitoneally; for Tumour area (expressed as %): decrease (−) or increase (+) in HI-MXT tumour area vs control on the 21st day after grafting, 6 administrations
Protocol: as §1
hormone-insensitive mouse mammary carcinoma MXT (HI-MXT),
as §2, §3, §4, §5
The influence of the two products CRL 8293 and CRL 8294 on the growth of HI-MXT tumours will be presented below by way of example. Each batch of mice grafted with HI-MXT tumours relating to a given experimental condition comprises 15 animals.
as §6, with “out on the seventh day postgrafting (D7) at the rate of[…]” for “out on the seventh”
The product CRL 8294 is administered intraperitoneally. The first injection of the product is carried out on the seventh day postgrafting (D7) at the rate of 3 injections per week (Monday, Wednesday and Friday) for 3 consecutive weeks and at a dose of 5 mg/kg.
The decreases (−) or the increases (+) in the area of the HI-MXT tumours induced with treatments 1 and 2 with respect to the control condition on the 21st day after the tumour grafting, i.e. after 6 administrations of the product CRL 8293 or of the product CRL 8294, are shown, as percentage, in the following Table II. 100% of the control animals are still alive on the 21st day postgrafting.

Row | SMILES | growth of the HS-MXT tumours (in words) [1] | Tumour area (expressed as %) [1] [%] | growth of the HI-MXT tumours (in words) [2] | Tumour area (expressed as %) [2] [%]
1 | O=C1c2cccnc2-c2nccc3ccnc1c23 [CRL 8293, 7H-Pyrido[4,3,2-de][1,10]phenanthroline-7-one] | very highly significant decrease | −45 | significant decrease | −33
2 | O=C1c2ncccc2-c2nccc3ccnc1c23 [CRL 8294, 7H-Pyrido[4,3,2-de][1,7phenanthroline-7-one] | very highly significant decrease | −64 | significant decrease | −36
